Measured values: ChEMBL document CHEMBL1201862, “PubChem BioAssay data set” (2004)
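Interpolation was linear, between the two tested concentrations surrounding the appropriate level; five concentrations were tested over 48 hours in 96-well plates. GI50 marks 50% less growth.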 Active and inactive are the calls of the source. No stated cut-off is given here; in the data, active = GI50 up to about 1.1 µM and inactive = higher.

What was measured:
Experiment in all cases: NCI-60 cell line screen, 48 h
HCT-116 = tested on: HCT-116
ACHN = tested on: ACHN
SF-539 = tested on: SF-539
LXFL 529 = tested on: LXFL 529
SK-MEL-2 = tested on: SK-MEL-2
SK-MEL-28 = tested on: SK-MEL-28
HCT-15 = tested on: HCT-15
SNB-75 = tested on: SNB-75
HOP-92 = tested on: HOP-92
TK-10 = tested on: TK-10
SN12C = tested on: SN12C
786-0 = tested on: 786-0
OVCAR-8 = tested on: OVCAR-8
COLO 205 = tested on: COLO 205
RXF 393 = tested on: RXF 393
DLD-1 = tested on: DLD-1
OVCAR-4 = tested on: OVCAR-4
U-251 = tested on: U-251
SNB-78 = tested on: SNB-78
OVCAR-5 = tested on: OVCAR-5
HOP-18 = tested on: HOP-18
A549 = tested on: A549
HT-29 = tested on: HT-29
M14 = tested on: M14
SNB-19 = tested on: SNB-19
SK-MEL-5 = tested on: SK-MEL-5
K562 = tested on: K562
RPMI-8226 = tested on: RPMI-8226
SW-620 = tested on: SW-620
SF-268 = tested on: SF-268
IGROV-1 = tested on: IGROV-1
NCI-H226 = tested on: NCI-H226
SF-295 = tested on: SF-295
OVCAR-3 = tested on: OVCAR-3
NCI-H522 = tested on: NCI-H522
RXF 631 = tested on: RXF 631
UACC-257 = tested on: UACC-257
LOX IMVI = tested on: LOX IMVI
A498 = tested on: A498
UO-31 = tested on: UO-31
UACC-62 = tested on: UACC-62
HL-60 = tested on: HL-60
MOLT-4 = tested on: MOLT-4
HOP-62 = tested on: HOP-62
EKVX = tested on: EKVX
Malme-3M = tested on: Malme-3M
KM-20L2 = tested on: KM-20L2
CAKI-1 = tested on: CAKI-1
KM12 = tested on: KM12
CCRF-CEM = tested on: CCRF-CEM
DMS-273 = tested on: DMS-273
NCI-H23 = tested on: NCI-H23
HCC 2998 = tested on: HCC 2998
M19-MEL = tested on: M19-MEL
NCI-H460 = tested on: NCI-H460
DMS-114 = tested on: DMS-114

## CCC1(CN(C)C)CC/C(=C\c2ccc3c(c2)OCO3)C1=O (stereo not given)
HCT-116
  GI50: > 100 µM (inactive)
ACHN
  GI50: > 100 µM (inactive)
SF-539
  GI50: > 100 µM (inactive)
LXFL 529
  GI50: > 100 µM (inactive)
SK-MEL-2
  GI50: > 100 µM (inactive)
SK-MEL-28
  GI50: > 100 µM (inactive)
HCT-15
  GI50: > 100 µM
SNB-75
  GI50: > 100 µM (inactive)
HOP-92
  GI50: > 100 µM (inactive)
TK-10
  GI50: > 100 µM (inactive)
SN12C
  GI50: > 100 µM (inactive)
786-0
  GI50: > 100 µM (inactive)
OVCAR-8
  GI50: 91.6 µM (inactive)
COLO 205
  GI50: > 100 µM (inactive)
RXF 393
  GI50: > 100 µM (inactive)
DLD-1
  GI50: 82.2 µM (inactive)
OVCAR-4
  GI50: > 100 µM (inactive)
U-251
  GI50: > 100 µM (inactive)
SNB-78
  GI50: > 100 µM (inactive)
OVCAR-5
  GI50: > 100 µM (inactive)
HOP-18
  GI50: > 100 µM (inactive)
A549
  GI50: > 100 µM (inactive)
HT-29
  GI50: 65.2 µM (inactive)
M14
  GI50: > 100 µM (inactive)
SNB-19
  GI50: > 100 µM (inactive)
SK-MEL-5
  GI50: 62.5 µM (inactive)
K562
  GI50: 65.9 µM (inactive)
RPMI-8226
  GI50: 40.7 µM (inactive)
SW-620
  GI50: > 100 µM (inactive)
SF-268
  GI50: > 100 µM (inactive)
IGROV-1
  GI50: > 100 µM (inactive)
NCI-H226
  GI50: > 100 µM (inactive)
SF-295
  GI50: > 100 µM (inactive)
OVCAR-3
  GI50: > 100 µM (inactive)
NCI-H522
  GI50: 49.9 µM (inactive)
RXF 631
  GI50: > 100 µM (inactive)
UACC-257
  GI50: > 100 µM (inactive)
LOX IMVI
  GI50: > 100 µM (inactive)
A498
  GI50: > 100 µM (inactive)
UO-31
  GI50: 91.8 µM (inactive)
UACC-62
  GI50: > 100 µM (inactive)
HL-60
  GI50: 11.4 µM (inactive)
MOLT-4
  GI50: > 100 µM (inactive)
HOP-62
  GI50: > 100 µM (inactive)
EKVX
  GI50: 52.1 µM (inactive)
Malme-3M
  GI50: > 100 µM (inactive)
KM-20L2
  GI50: 47.2 µM (inactive)
CAKI-1
  GI50: > 100 µM (inactive)
KM12
  GI50: > 100 µM (inactive)
CCRF-CEM
  GI50: 48.6 µM (inactive)
DMS-273
  GI50: > 100 µM (inactive)
NCI-H23
  GI50: > 100 µM (inactive)
HCC 2998
  GI50: > 100 µM (inactive)
M19-MEL
  GI50: > 100 µM (inactive)

## O=C(O)C1NCCc2c1[nH]c1ccccc21 (stereo not given)
LXFL 529
  GI50: > 100 µM (inactive)
SK-MEL-2
  GI50: > 100 µM (inactive)
NCI-H460
  GI50: > 100 µM (inactive)
DLD-1
  GI50: > 100 µM (inactive)
SNB-78
  GI50: > 100 µM (inactive)
OVCAR-5
  GI50: > 100 µM (inactive)
HOP-18
  GI50: > 100 µM (inactive)
NCI-H226
  GI50: > 100 µM (inactive)
SF-295
  GI50: > 100 µM (inactive)
RXF 631
  GI50: > 100 µM (inactive)
LOX IMVI
  GI50: > 100 µM (inactive)
UO-31
  GI50: > 100 µM (inactive)
KM-20L2
  GI50: > 100 µM (inactive)
DMS-273
  GI50: > 100 µM (inactive)
DMS-114
  GI50: > 100 µM (inactive)
M19-MEL
  GI50: > 100 µM (inactive)
